The subject of data set [1] is human normal colon epithelial cells (NCM-460). The data set is classed as cell-based. Particulars: 48 h. As to the method:
Human normal colon epithelial cells (NCM‐460) were purchased from the BeNa Culture Collection. Cytotoxicity was measured using the 3‐[4,5‐dimethylthiazol‐2‐yl]−2,5 diphenyl tetrazolium bromide (MTT) assay. The NCM‐460 cells were cultured in the Dulbecco's modified Eagle's medium (DMEM)‐H complete culture medium (90% DMEM‐H, 10% FBS, 10,000 U/mL penicillin, and 10,000 μg/mL streptomycin) to logarithmic growth phase. The suspension of cells was prepared at 10^5 cells/100 μL/well in a 96‐well plate. The peptides selected for the assay were dissolved in the DMEM‐H medium to prepare a 25 mg/mL stock solution, diluted for multiple gradients of 4–512 μg/mL. Afterwards, the peptides that had been diluted (100 μL/well) were introduced into the cells residing on a 96‐well plate. The DMEM‐H medium served as the blank group, the cell suspension as the control group, and the cell suspension combined with the peptide as the experimental group. Each group was conducted in three separate replicates. After 48 h of culture, 10 μL MTT was added to each well and incubated further at 37°C for 4 h. Then 100 μL Formazan solution was added and incubated further at 37°C for 4 h until all the purple crystals were dissolved. The absorbances were measured at OD570. Cell viability was determined by calculating cell viability using the following formula. Cell viability=OD570(experimental)−OD570(blank)/OD570(control)−OD570(blank)×100%.
Then, the CC50 value of each AMP molecule was calculated using an online tool: https://www.aatbio.com/tools/ic50-calculator.

In data set [2] the test system is sheep red blood cells. The note with it: red cells of sheep, 1 h.
Experimental: Freshly collected sheep blood was centrifuged at 3000 rpm for 10 min, and the supernatant was removed. The pellet was washed and resuspended with normal saline water to produce a 2% blood cell solution. Then, 400 μL of peptide solution was added to 100 μL of 2% blood cell solution to achieve final peptide concentrations of 8, 16, 32, 64, and 128 μg/mL. Normal saline water and Triton X‐100 normal saline solution (2%) were used as negative and positive controls, respectively. The samples were incubated in a water bath at 37°C for 1 h, followed by centrifugation at 3000 rpm for 10 min. Then, 200 μL of the supernatant was transferred to a 96‐well plate, and OD values were measured at a wavelength of 545 nm. The hemolysis rate of each sample was calculated using the following formula: Hemolysis ratio=OD545(experimental)−OD545(negative control)/OD545(positive control)−OD545(negative control)×100%.
Data set [3] deals with eight pathogenic bacterial strains. Briefly: MIC, panel statement. The data set is classed as cell-based. The note with it: panel of eight strains, CAMHB, 37°C. As to the method: Eight bacterial strains were utilized in the antibacterial experiment. S. aureus ATCC 12600, B. subtilis ATCC 23857, E. coli ATCC 11775, and A. baumannii ATCC 19606 were purchased from Shanghai Beinuo Biology. M. luteus ATCC 4698 and S. bongori ATCC43975 were purchased from Shanghai Beisi Biotechnology. V. owensii ems001 and V. alginolyticus xv22 from the intestines of diseased shrimps were isolated in our laboratory. All strains were cultured in the cation‐adjusted Mueller‐Hinton broth (CAMHB) at 37°C to the logarithmic growth phase (OD600 = 0.5). Then, bacteria were gradient‐diluted using fresh CAMHB to a bacterial density of 5 × 10^5 CFU/mL. Antibacterial experiments were performed in a 96‐well plate with 200 μg/mL final peptide concentration. Four experimental groups were set up, including a blank control (200 μL CAMHB), a negative control (180 μL CAMHB plus 20 μL peptide), a positive control (180 μL bacterial culture plus 20 μL ultrapure water), and an experimental group (180 μL bacterial culture plus 20 μL peptide). Three biological replicates were conducted for each group, and OD600 values were measured after incubation at 37°C for 12 h. Every observed value was removed from the blank control group value. […] The MIC of a peptide against a bacterium was determined as the minimum peptide concentration at which there was no visible bacterial growth.

Where a SMILES comes first, the peptide text is derived from it. Where no end group is shown, it is not given here.

Regarding `CSCC[C@H](N)C(=O)N[C@@H](CCCCN)C(=O)N1CCC[C@H]1C(=O)N[C@@H](CS)C(=O)N[C@@H](CCCNC(=N)N)C(=O)N[C@@H](CCCCN)C(=O)N[C@@H](C)C(=O)N[C@@H](CC(C)C)C(=O)N[C@@H](Cc1c[nH]c2ccccc12)C(=O)N[C@@H](CO)C(=O)N[C@H](C(=O)N[C@@H](Cc1c[nH]c2ccccc12)C(=O)N[C@@H](CCCCN)C(=O)N[C@@H](CCCNC(=N)N)C(=O)N[C@@H](CCCCN)C(=O)N[C@@H](CS)C(=O)N[C@@H](CCCNC(=N)N)C(=O)N[C@@H](Cc1c[nH]cn1)C(=O)N[C@@H](CCC(=O)O)C(=O)O)C(C)C` [Cand-196] (H-MKPCRKALWSVWKRKCRHE-OH), the “Cytotoxicity CC50” value in data set [1] was 18.881 µg/mL. In data set [2], the “Hemolysis ratio (%) at 8μg/mL” value is 1.481%, the “Hemolysis ratio (%) at 16μg/mL” value was found to be 2.356%, the “Hemolysis ratio (%) at 32μg/mL” value was 4.680% and the “Hemolysis ratio (%) at 64μg/mL” value turned out to be 5.976%. Further, the “Hemolysis ratio (%) at 128μg/mL” value in data set [2] turned out to be 13.102%.

Consider MKKCRRKVLFGLWRRN [Cand-77], for which, in data set [1], the “Cytotoxicity CC50” value came out at 45.263 µg/mL. Also, in data set [2], the “Hemolysis ratio (%) at 8μg/mL” value is on record as 3.431%, the “Hemolysis ratio (%) at 16μg/mL” value is recorded as 4.302%, the “Hemolysis ratio (%) at 32μg/mL” value is reported as 5.822% and the “Hemolysis ratio (%) at 64μg/mL” value is 8.387%. The “Hemolysis ratio (%) at 128μg/mL” value in data set [2] was 12.471%. Also, the “MIC against nearly all strains” value in data set [3] is not above 32 µg/mL.

MRCSLKKIISTFFS [Cand-71]: the “Cytotoxicity CC50” value in data set [1] is 23.841 µg/mL. In data set [2], the “Hemolysis ratio (%) at 8μg/mL” value came to 6.779%, the “Hemolysis ratio (%) at 16μg/mL” value was found to be 7.213%, the “Hemolysis ratio (%) at 32μg/mL” value came out at 15.000% and the “Hemolysis ratio (%) at 128μg/mL” value worked out at 19.534%.

As for MRIVMCRIGGRL [Cand-102], the “Cytotoxicity CC50” value in data set [1] worked out at 5.897 µg/mL. Moreover, in data set [2], the “Hemolysis ratio (%) at 8μg/mL” value is reported as 6.842%, the “Hemolysis ratio (%) at 16μg/mL” value is on record as 37.647%, the “Hemolysis ratio (%) at 32μg/mL” value stood at 54.569% and the “Hemolysis ratio (%) at 128μg/mL” value came to 41.034%.

Turning to MSRSLRNLLKYVWVKVKGE [Cand-217], the “Cytotoxicity CC50” value in data set [1] worked out at 25.740 µg/mL. In addition, in data set [2], the “Hemolysis ratio (%) at 8μg/mL” value is given as 2.490%, the “Hemolysis ratio (%) at 16μg/mL” value was found to be 2.604%, the “Hemolysis ratio (%) at 32μg/mL” value was determined as 4.447% and the “Hemolysis ratio (%) at 64μg/mL” value was found to be 9.600%. Also, the “MIC against nearly all strains” value in data set [3] is not above 32 µg/mL.

Consider MVAVMKKLLLKYALK [Cand-82], for which, in data set [1], the “Cytotoxicity CC50” value was 10.864 µg/mL. In data set [2], the “Hemolysis ratio (%) at 8μg/mL” value came to 2.395%, the “Hemolysis ratio (%) at 16μg/mL” value came to 3.214%, the “Hemolysis ratio (%) at 32μg/mL” value is 3.498% and the “Hemolysis ratio (%) at 64μg/mL” value is 2.486%.

The record behind these values is article PMC11683478, “Bioprospecting of culturable marine biofilm bacteria for novel antimicrobial peptides” (iMeta, 2024).
